# In article PMC11947619, “Molecular mechanism of Mad2 conformational conversion promoted by the Mad2‐interaction motif of Cdc20” (Protein Science : A Publication of the Protein Society, 2025):
# Test system: C‐Mad2
# Experiment: NMR chemical shift perturbations of C-Mad2 by Cdc20 residues 138–152
# Assay type: binding, human
# Conditions: inferred from small CSPs, spectra of C-Mad2:Cdc20^MIM-123-152 vs C-Mad2:Cdc20^MIM-123-137, and lack of cryo-EM structural information
# Protocol: FIGURE 3 Mad2 conversion rates with different Cdc20^MIM peptides. (a) Schematic of human Cdc20. Box1: Box1 motif; C1: C‐box motif; K1: KEN box motif; MIM: Mad2‐interacting motif, residues 123–137; WD40: WD40 domain, residues 182–480; IR: IR tail. (b) Mad2 conversion in the presence of different Cdc20^MIM peptides. Mad2 conversion was traced at 25°C and the changes in the first 30 min are shown. A black tick indicates where conversion is considered complete. NMR data for O‐Mad2^R133A with Cdc20^MIM‐111‐138 shown for comparison are from Fischer et al. ([2022]). (c) The Cdc20^MIM‐138‐152‐binding site was identified by comparing the spectra of C‐Mad2:Cdc20^MIM‐123‐137 with C‐Mad2:Cdc20^MIM‐123‐152 (boxed in b) and analyzing their CSPs (Figure S8e,f). The Cdc20^MIM‐138‐152‐binding site (blue) is mapped onto the structure of C‐Mad2:Cdc20 from the cryo‐EM structure of the APC/C:MCC complex (PDB 6TLJ) (Alfieri et al., [2016], Alfieri et al., [2020]). The O‐Mad2 structural model is superimposed onto the C‐Mad2 structure for comparison. Cdc20 residues 138–152 are in yellow and residues 126–138 are in green. The β7/β8 hairpin in O‐Mad2 (red) blocks both the binding sites for Cdc20 residues 126–138 and residues 138–152. (d) As in c except the β7/β8 hairpin in O‐Mad2 is removed to expose the Cdc20 binding sites. […] (f) Cdc20^MIM‐123‐152 was titrated into Mad2^∆β7/β8 and its binding was analyzed by NMR. […]
sequence,measurement,value
"QNAPEGYQNRLKVLY [Cdc20^MIM‐138‐152, peptide of Cdc20 residues 138–152]","association with C-Mad2, in words",only weakly associated with C‐Mad2
